From US12378224B2 (Dong-A Socio Holdings Co., Ltd., priority 2016, dated 2025) come the findings set out here.

The assay addresses human MER (528-end) (Homo sapiens (Human), UniProt Q12866). As to the kind of experiment: HTRF Kinase Activity Biochemical Assay (KinEASE-TK). As to conditions: 10 uM ATP. Here is the method: For the SAR (structure-activity relationship) and compound screening, HTRF (Homogeneous Time Resolved Fluorescence) kinase activity assay was employed for all MER, AXL and TYRO3 kinases using Cisbio HTRF® KinEASE™-TK kit (Cisbio, USA). The kit includes biotin-labeled TK substrate, streptavidin-XL665, Eu3+-cryptate-labeled TK antibody and HTRF® Detection buffer. There are two main steps in the kinase assay: kinase reaction and detection of phosphorylated substrate. The reaction was carried out in white low volume 384-well plate (Corning, USA) with 25 nL compound in dimethyl sulfoxide in each well. […] Then the reaction was stopped after 1 hour incubation at room temperature by adding 5 uL of HTRF® Detection buffer which also contains 0.375 nM Eu3+-cryptate-labeled TK antibody and 0.062 uM streptavidin-XL665(SA-XL665) to allow for detection of the phosphorylated peptide product. After 1 h incubation at room temperature, the fluorescence intensity was measured with Envision™ plate reader (PerkinElmer, USA). Upon excitation at 340 nm by UV, the energy from Eu3+ donor of the antibody is transferred to the FRET acceptor XL665, and […] emits light at 665 nm. The level of kinase activity was quantified by the HTRF ratio that calculated from the intensity of emission at 665 nm and emission at 620 nm (fluorescence intensity @ 665 nm/fluorescence intensity @ 620 nm×10,000). The recombinant protein of human MER (528-end) was purchased from Carnabio, Japan. The recombinant human AXL (473-end) and TYRO3 (455-end) were purchased from SignalChem, Canada.
(In general: TR-FRET usually uses a lanthanide donor and a delayed reading to cut background.)

human MER (528-end), sequence (Q12866 528-999 limits assumed): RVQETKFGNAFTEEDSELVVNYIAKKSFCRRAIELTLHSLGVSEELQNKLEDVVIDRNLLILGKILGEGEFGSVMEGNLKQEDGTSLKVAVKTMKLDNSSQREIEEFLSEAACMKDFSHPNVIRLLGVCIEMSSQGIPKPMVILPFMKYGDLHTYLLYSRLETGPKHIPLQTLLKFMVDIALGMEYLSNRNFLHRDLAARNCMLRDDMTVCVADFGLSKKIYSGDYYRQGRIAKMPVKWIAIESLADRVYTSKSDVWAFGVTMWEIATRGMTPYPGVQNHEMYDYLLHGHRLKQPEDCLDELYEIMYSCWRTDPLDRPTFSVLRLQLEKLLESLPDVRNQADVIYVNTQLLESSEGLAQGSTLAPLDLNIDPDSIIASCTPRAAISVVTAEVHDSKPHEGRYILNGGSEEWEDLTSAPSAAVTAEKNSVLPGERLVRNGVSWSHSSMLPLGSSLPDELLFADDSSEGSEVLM

Compound “2-amino-N—((R)-1-(3-(((R)-2-(hydroxymethyl)pyrrolidin-1-yl)methyl)-[1,1′-biphenyl]-3-carbonyl)pyrrolidin-3-yl)-5-(1-methyl-1H-pyrazol-4-yl)nicotinamide [Example 462]” showed an IC50 of over 1 µM.

`Cn1cc(-c2cnc(N)c(C(=O)N[C@@H]3CCN(C(=O)Nc4cccc(F)c4)C3)c2)cn1` [Example 2, (R)-2-amino-N-(1-((3-fluorophenyl)carbamoyl)pyrrolidin-3-yl)-5-(1-methyl-1H-pyrazol-4-yl)nicotinamide]: the IC50 was over 1 µM.

`Cn1cc(-c2cnc(N)c(C(=O)N[C@@H]3CCN(C(=O)Nc4ccc(F)c(F)c4)C3)c2)cn1` [Example 3, (R)-2-amino-N-(1-((3,4-difluorophenyl)carbamoyl)pyrrolidin-3-yl)-5-(1-methyl-1H-pyrazol-4-yl)nicotinamide] gave an IC50 of over 1 µM.

As to `Cc1cc(C)cc(NC(=O)N2CC[C@@H](NC(=O)c3cc(-c4cnn(C)c4)cnc3N)C2)c1` [Example 4, (R)-2-amino-N-(1-((3,5-dimethylphenyl)carbamoyl)pyrrolidin-3-yl)-5-(1-methyl-1H-pyrazol-4-yl)nicotinamide], the IC50 is over 1 µM.

Turning to `Cn1cc(-c2cnc(N)c(C(=O)N[C@@H]3CCN(C(=O)Nc4cc(C(F)(F)F)cc(C(F)(F)F)c4)C3)c2)cn1` [Example 5, (R)-2-amino-N-(1-((3,5-bis(trifluoromethyl)phenyl)carbamoyl)pyrrolidin-3-yl)-5-(1-methyl-1H-pyrazol-4-yl)nicotinamide], the IC50 is over 1 µM.

In turn, `Cn1cc(-c2cnc(N)c(C(=O)N[C@@H]3CCN(C(=O)Nc4ccc(C(F)(F)F)cc4)C3)c2)cn1` [Example 6, (R)-2-amino-5-(1-methyl-1H-pyrazol-4-yl)-N-(1-((4-(trifluoromethyl)phenyl)carbamoyl)pyrrolidin-3-yl)nicotinamide] returned an IC50 of over 1 µM.

For `CC(C)NC(=O)N1CC[C@@H](NC(=O)c2cc(-c3cnn(C)c3)cnc2N)C1` [Example 8, (R)-2-amino-N-(1-(isopropylcarbamoyl)pyrrolidin-3-yl)-5-(1-methyl-1H-pyrazol-4-yl)nicotinamide], the IC50 is over 1 µM.

`Cn1cc(-c2cnc(N)c(C(=O)N[C@@H]3CCN(C(=O)Nc4ccn(C)n4)C3)c2)cn1` [Example 12, (R)-2-amino-N-(1-((1-methyl-1H-pyrazol-3-yl)carbamoyl)pyrrolidin-3-yl)-5-(1-methyl-1H-pyrazol-4-yl)nicotinamide] gave an IC50 of over 1 µM.

Regarding `Cn1cc(-c2cnc(N)c(C(=O)N[C@@H]3CCN(C(=O)Nc4cccc(Cl)c4)C3)c2)cn1` [Example 14, (R)-2-amino-N-(1-((3-chlorophenyl)carbamoyl)pyrrolidin-3-yl)-5-(1-methyl-1H-pyrazol-4-yl)nicotinamide], the IC50 was over 1 µM.

As to `CC(C)Oc1cccc(NC(=O)N2CC[C@@H](NC(=O)c3cc(-c4cnn(C)c4)cnc3N)C2)c1` [Example 16, (R)-2-amino-N-(1-((3-isopropoxyphenyl)carbamoyl)pyrrolidin-3-yl)-5-(1-methyl-1H-pyrazol-4-yl)nicotinamide], the IC50 was over 1 µM.

`Cn1cc(-c2cnc(N)c(C(=O)N[C@@H]3CCN(C(=O)Nc4cccc(Oc5ccccc5)c4)C3)c2)cn1` [Example 17, (R)-2-amino-5-(1-methyl-1H-pyrazol-4-yl)-N-(1-((3-phenoxyphenyl)carbamoyl)pyrrolidin-3-yl)nicotinamide] registered an IC50 of 0.01 to 0.1 µM.

In turn, `Cn1cc(-c2cnc(N)c(C(=O)N[C@@H]3CCN(C(=O)Nc4ccccc4Oc4ccccc4)C3)c2)cn1` [Example 18, (R)-2-amino-5-(1-methyl-1H-pyrazol-4-yl)-N-(1-((2-phenoxyphenyl)carbamoyl)pyrrolidin-3-yl)nicotinamide] had an IC50 of over 1 µM.

As to `CCc1cccc(NC(=O)N2CC[C@@H](NC(=O)c3cc(-c4cnn(C)c4)cnc3N)C2)c1` [Example 19, (R)-2-amino-N-(1-((3-ethylphenyl)carbamoyl)pyrrolidin-3-yl)-5-(1-methyl-1H-pyrazol-4-yl)nicotinamide], the IC50 is over 1 µM.

As for `Cn1cc(-c2cnc(N)c(C(=O)N[C@@H]3CCN(C(=O)Nc4ccccc4Cl)C3)c2)cn1` [Example 21, (R)-2-amino-N-(1-((2-chlorophenyl)carbamoyl)pyrrolidin-3-yl)-5-(1-methyl-1H-pyrazol-4-yl)nicotinamide], the IC50 is over 1 µM.

In the case of `Cn1cc(-c2cncc(C(=O)N[C@@H]3CCN(C(=O)Nc4cc(Cl)cc(Cl)c4)C3)c2)cn1` [Example 22, (R)—N-(1-((3,5-dichlorophenyl)carbamoyl)pyrrolidin-3-yl)-5-(1-methyl-1H-pyrazol-4-yl)nicotinamide], the IC50 is over 1 µM.

On to `Cn1cc(-c2cnc(N)c(C(=O)N[C@@H]3CCN(C(=O)Nc4cccc(-c5ccccc5)c4)C3)c2)cn1` [Example 23, (R)—N-(1-([1,1′-biphenyl]-3-ylcarbamoyl)pyrrolidin-3-yl)-2-amino-5-(1-methyl-1H-pyrazol-4-yl)nicotinamide], for which the IC50 was in the range of 0.1 to 1 µM.

`Cn1cc(-c2cnc(N)c(C(=O)N[C@@H]3CCN(C(=O)Nc4ccc(Br)cc4)C3)c2)cn1` [Example 25, (R)-2-amino-N-(1-((4-bromophenyl)carbamoyl)pyrrolidin-3-yl)-5-(1-methyl-1H-pyrazol-4-yl)nicotinamide] returned an IC50 of over 1 µM.

Take `Cn1cc(-c2cnc(N)c(C(=O)N[C@@H]3CCN(C(=O)Nc4cccc(CN5CCOCC5)c4)C3)c2)cn1` [Example 26, (R)-2-amino-5-(1-methyl-1H-pyrazol-4-yl)-N-(1-((3-(morpholinomethyl)phenyl)carbamoyl)pyrrolidin-3-yl)nicotinamide]: the IC50 is over 1 µM.

For `Cn1cc(-c2cnc(N)c(C(=O)N[C@H]3CCN(C(=O)Nc4ccccc4)C3)c2)cn1` [Example 27, (S)-2-amino-5-(1-methyl-1H-pyrazol-4-yl)-N-(1-(phenylcarbamoyl)pyrrolidin-3-yl)nicotinamide], the IC50 was over 1 µM.

`Cn1cc(-c2cnc(N)c(C(=O)N[C@@H]3CCN(C(=O)N4CCc5c(N)cccc5C4)C3)c2)cn1` [Example 28, (R)-2-amino-N-(1-(5-amino-1,2,3,4-tetrahydroisoquinoline-2-carbonyl)pyrrolidin-3-yl)-5-(1-methyl-1H-pyrazol-4-yl)nicotinamide] came in with an IC50 of over 1 µM.

Turning to `Cn1cc(-c2cnc(N)c(C(=O)N[C@@H]3CCN(C(=O)N4CCc5cccc(Br)c5C4)C3)c2)cn1` [Example 29, (R)-2-amino-N-(1-(8-bromo-1,2,3,4-tetrahydroisoquinoline-2-carbonyl)pyrrolidin-3-yl)-5-(1-methyl-1H-pyrazol-4-yl)nicotinamide], the IC50 was over 1 µM.

For the compound `Cn1cc(-c2cnc(N)c(C(=O)N[C@@H]3CCN(C(=O)NC4CCCCC4)C3)c2)cn1` [Example 30, (R)-2-amino-N-(1-(cyclohexylcarbamoyl)pyrrolidin-3-yl)-5-(1-methyl-1H-pyrazol-4-yl)nicotinamide], the 50% inhibitory concentration (IC50) was in the range of 0.1 to 1 µM.

`Cn1cc(-c2cnc(N)c(C(=O)N[C@@H]3CCN(C(=O)N[C@@H]4CCCC[C@@H]4O)C3)c2)cn1` [Example 31, 2-amino-N—((R)-1-(((1R,2S)-2-hydroxycyclohexyl)carbamoyl)pyrrolidin-3-yl)-5-(1-methyl-1H-pyrazol-4-yl)nicotinamide] yielded a 50% inhibitory concentration (IC50) of over 1 µM.

`Cn1cc(-c2cnc(N)c(C(=O)N[C@@H]3CCN(C(=O)N[C@@H]4CCCC[C@H]4O)C3)c2)cn1` [Example 32, 2-amino-N—((R)-1-(((1R,2R)-2-hydroxycyclohexyl)carbamoyl)pyrrolidin-3-yl)-5-(1-methyl-1H-pyrazol-4-yl)nicotinamide] displayed a half-inhibitory concentration (IC50) of over 1 µM.

For the compound `Cn1cc(-c2cnc(N)c(C(=O)N[C@@H]3CCN(C(=O)Nc4cc(Cl)cc(Cl)c4)C3)c2)cn1` [Example 34, (R)-2-amino-N-(1-((3,5-dichlorophenyl)carbamoyl)pyrrolidin-3-yl)-5-(1-methyl-1H-pyrazol-4-yl)nicotinamide], the IC50 is 0.1 to 1 µM.

`Nc1ncc(-c2ccc(CN3CCOCC3)cc2)cc1C(=O)N[C@@H]1CCN(C(=O)Nc2cccc(-c3ccccc3)c2)C1` [Example 38, (R)—N-(1-([1,1′-biphenyl]-3-ylcarbamoyl)pyrrolidin-3-yl)-2-amino-5-(4-(morpholinomethyl)phenyl)nicotinamide]: the IC50 fell in the range of 0.01 to 0.1 µM.

Turning to `Cn1cc(-c2cnc(N)c(C(=O)N[C@@H]3CCN(C(=O)N[C@H]4CCC[C@@H]4OCc4ccccc4)C3)c2)cn1` [Example 40, 2-amino-N—((R)-1-(((1S,2S)-2-(benzyloxy)cyclopentyl)carbamoyl)pyrrolidin-3-yl)-5-(1-methyl-1H-pyrazol-4-yl)nicotinamide], the IC50 was over 1 µM.

As to `Cn1cc(-c2cnc(N)c(C(=O)N[C@@H]3CCN(C(=O)NC4CCC(OCc5ccccc5)C4)C3)c2)cn1` (stereo partly drawn) [Example 41, 2-amino-N-((3R)-1-((3-(benzyloxy)cyclopentyl)carbamoyl)pyrrolidin-3-yl)-5-(1-methyl-1H-pyrazol-4-yl)nicotinamide], the IC50 is over 1 µM.

With `Cn1cc(-c2cnc(N)c(C(=O)N[C@@H]3CCN(C(=S)Nc4ccc(F)cc4)C3)c2)cn1` [Example 42, (R)-2-amino-N-(1-((4-fluorophenyl)carbamothioyl)pyrrolidin-3-yl)-5-(1-methyl-1H-pyrazol-4-yl)nicotinamide], the IC50 is over 1 µM.

The IC50 is the concentration that gives 50% inhibition. A lower IC50 goes with inhibition by little substance.
